Experimental data as given in patent US4835157A, “Thieno- and furopyrimidine-2,4-dione piperidine derivatives as serotonin antagonists and alpha adrenergic blocking agents” (Ortho Pharmaceutical Corporation, priority 1988, dated 1989).

Experiments:
[1] = tested on: Spontaneously Hypertensive Rats (SHR); test: Antihypertensive Activity in Spontaneously Hypertensive Rats (SHR); type: in vivo, rat; conditions: @ 5 mg/kg p.o., 4 h monitoring
Experimental: Antihypertensive Activity in Spontaneously Hypertensive Rats (SHR)
Antihypertensive activity was assessed using the following procedure. Adult male SHR were surgically prepared with arterial cannuli under light ether anesthesia and given 60-90 minute post-surgical recovery. Mean arterial pressure (MAP) was continuously monitored via the arterial line. After baseline MAP was recorded, groups of 3-6 SHR received a single dose of drug or vehicle (0.5% methylcellulose) administered by gavage at doses of 1 to 5 mg/kg.MAP was monitored for four hours post-dosing.
Maximal changes in MAP were reported.

[2] = tested on: alpha1 adrenergic receptor; test: Alpha1 Blockade in vivo (inhibition of phenylephrine pressor response); design: species or system spontaneously hypertensive rats (SHR); conditions: anesthetized, vagotomized SHR; i.v.
Experimental: The potency of these compounds as alpha1 adrenergic antagonists was determined using the following procedure: adult male spontaneously hypertensive rats (SHR) were anesthetized and bilaterally vagotomized. A carotid artery and jugular vein were cannulated for monitoring mean arterial blood pressure and drug administration, respectively. The percent inhibition of alpha1 adrenergic receptor activation was quantified by measuring pressor responses to phenylephrine before and after antagonist treatment. […] Compounds were tested to the limits of their solubility for intravenous administration.

[3] = target: T1, 5HT1A receptor (Rattus norvegicus, UniProt P19327); test: Brain Serotonin (5HT1A) radioreceptor Assay (3H-8-OH DPAT displacement, rat frontal cortex membranes); type: binding; conditions: 3H-8-OH DPAT
T1 construct: Membrane fragments were prepared from prefrontal cortex; from tissue; host or cells: prefrontal/frontal cortex of female rats (about 150 g), membrane fragments
T1 sequence (P19327 1-422): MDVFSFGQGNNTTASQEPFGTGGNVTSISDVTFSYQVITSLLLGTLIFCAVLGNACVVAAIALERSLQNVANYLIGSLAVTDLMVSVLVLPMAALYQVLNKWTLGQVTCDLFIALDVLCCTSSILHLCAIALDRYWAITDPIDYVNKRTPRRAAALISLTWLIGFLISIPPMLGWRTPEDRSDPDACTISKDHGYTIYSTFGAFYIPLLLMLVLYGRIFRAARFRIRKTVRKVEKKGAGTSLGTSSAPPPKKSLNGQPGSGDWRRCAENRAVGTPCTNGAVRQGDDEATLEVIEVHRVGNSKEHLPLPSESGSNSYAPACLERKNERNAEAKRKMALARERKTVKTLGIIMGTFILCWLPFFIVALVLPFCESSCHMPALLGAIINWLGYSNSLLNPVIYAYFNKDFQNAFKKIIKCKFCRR
Experimental: Brain Serotonin (5HT1A) radioreceptor Assay
The text objects of this procedure were rat frontal cortex membranes. Membrane fragments were prepared from prefrontal cortex disected from brains obtained from female rats (≈150 g). The 5HT1A sites were labeled with ^3 H-8-OH dipropylaminotetralin (8-OH-DPAT). Membrane fragments, ^3 H-8-OH DPAT, TRIS buffer (pH 7.4) and unlabeled compound were incubated for 10 minutes at 37° C. and then for 10 minutes at 4° C. Separation of bound from unbound ^3 H-8-OH DPAT was performed by vacuum filtration on a glass fiber disc. The ability of a compound to compete with ^3 H-8-OH DPAT for binding sites is a measure of the affinity of the compound for the 5HT1A receptor. Specific binding was determined by the difference between total counts bound and the counts bound in the presence of […] 5-hydroxytryptamine.

[4] = target: T2, 5HT2 (Rattus norvegicus, UniProt P14842); test: 5HT2 Blockade in vivo (antagonism of 5HT induced pressor responses); design: Spontaneously hypertensive rats were anesthetized with sodium pentobarbital; from tissue; host or cells: whole animal: anesthetized spontaneously hypertensive rats (vasculature); species or system spontaneously hypertensive rats; conditions: rat, iv, read-out: 5-HT-Induced Pressor Response ED50
T2 sequence (P14842 whole entry): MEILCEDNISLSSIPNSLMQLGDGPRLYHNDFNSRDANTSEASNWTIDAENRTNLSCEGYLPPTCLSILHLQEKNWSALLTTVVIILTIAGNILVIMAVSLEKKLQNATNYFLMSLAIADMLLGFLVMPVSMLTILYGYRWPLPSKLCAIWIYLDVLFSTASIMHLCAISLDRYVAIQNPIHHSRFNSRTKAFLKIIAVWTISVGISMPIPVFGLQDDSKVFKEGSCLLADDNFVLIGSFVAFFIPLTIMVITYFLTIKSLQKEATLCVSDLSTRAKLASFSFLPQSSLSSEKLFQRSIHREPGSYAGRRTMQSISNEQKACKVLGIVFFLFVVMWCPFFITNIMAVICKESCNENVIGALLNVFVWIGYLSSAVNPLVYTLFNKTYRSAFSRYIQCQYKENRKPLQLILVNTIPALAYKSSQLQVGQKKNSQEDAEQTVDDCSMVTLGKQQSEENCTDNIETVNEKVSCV
Experimental: Antagonism of 5HT induced pressor responses was used to assess 5HT2 blockade in vivo. Spontaneously hypertensive rats were anesthetized with sodium pentobarbital (50 mg/kg, i.p.). The right carotid artery and vein were cannulated for pressure recording and drug injection, respectively. The trachea was cannulated, the rat placed on a respirator and ventilated with room air at 50-60 breaths/minute. Rats were pretreated with prazosin hydrochloride (1 mg/kg, i.v., blous) and pentolinium tartrate (5 mg/kg, i.v., bolus). After 10 minutes equilibration, the rat was challenged with 5HT (100 μg/kg) which elevates mean arterial pressure (MAP) 60-100 mmHg; non-responsive rats were discarded.
After a baseline had been reestablished, bolus injections of 5HT (100 μg/kg, i.v.) were given and the MAP responses were evaluated both pre- and post-drug administration. 5HT challenges were repeated 10 minutes after each dose of antagonist. Up to three cumulative doses of the antagonist were given to a single animal.

[5] = target: T2, 5HT2; test: Brain Serotonin (5-HT2) Radioreceptor Assay (3H-ketanserin displacement, rat frontal cortex membranes); type: binding; design: dissected from brains obtained from female rats; from tissue; host or cells: frontal cortex of female rats (about 150 g), membrane fragments; conditions: 15 min at 37° C
Experimental: Brain Serotonin (5-HT2) Radioreceptor Assay
The test objects of this Example were rat frontal cortex membranes. Mebrane fragments were prepared from the frontal cortex dissected from brains obtained from female rats (≈150 g). […] Compound bound to the receptor site was separated from the remaining unbound compound by vacuum filtration. […] Specific binding was determined by the difference between total counts bound and counts bound in the presence of 10^-6 M methysergide.

[6] = tested on: Serotonin-Induced Smooth Muscle Contractions (rabbit thoracic aorta); test: Inhibition of Serotonin-Induced Smooth Muscle Contractions (isolated thoracic aorta strips); type: cell-based; conditions: Oryctolagus cuniculus, 10 min, concentration shifting the serotonin dose curve 10x to the right, 10 min preincubation, read-out: 5-HT-Induced Smooth Muscle Contraction DR10
Experimental: Inhibition of Serotonin-Induced Smooth Muscle Contractions
The test objects of this Example were canines and rabbits. Rabbits were sacrificed by T-61 injection and the thoracic aorta was removed immediately. The aorta was placed in warmed, oxygenated Krebs-Henseleit buffer. After the tissue was cleaned, a 2-3 mm wide strip was cut helically from each aorta. A strip of approximately 5 cm was suspended in Krebs-Henseleit buffer at 37° C. in a 25 ml tissue bath and the tissues equilibrated at an initial resting tension of 4 g for 90-120 minutes. An initial serotonin dose curve, 0.01-10 μM was then done on each tissue, followed by a 60 minute washout and reequilibration. The test drug was then added for a 10 minute preincubation and another serotonin dose curve was done using 0.01-100 μM.
Results are expressed as DR10 values. This is the concentration of the compound required to shift the serotonin dose curve 10x to the right, i.e., the concentration of antagonist at which the concentration of serotonin required for 50% maximal contraction is increased ten-fold.

[7] = tested on: serotonin-induced platelet aggregation; test: Platelet Aggregation Assay (serotonin-induced); type: cell-based; conditions: Platelet; human plasma, serotonin 5 μM
Experimental: Platelet Aggegation Assay
Human blood was collected into tubes containing sodium citrate. The plasma was separated by centrifugation and was used as the source of platelets. Serotonin (5 μM) was used as the agonist to induce platelet aggregation. A control aggregation curve (as measured by the decrease in absorbance in transmitted light) was obtained in the presence of serotonin and in the absence of test compound. The test compound was added to an identical sample in a cuvette for one minute before addition of serotonin to yield the experimental curve.

[8] = tested on: serotonin receptors; test: Inhibition of 5-HTP-Induced Head Twitching; type: in vivo; conditions: male CD1 mice
Experimental: Inhibition of 5-HTP-Induced Head Twitching
This test detects compounds with antagonistic activity of serotonin receptors in vivo, and is a modified procedure of Corne, Pickering and Warner, Brit. J. Pharmacol. 20, 106 (1963). Groups of male CD1 mice were fasted overnight but allowed water ad libitum. They were deprived of water during the course of the experiment. The mice were weighed and treated orally or parenterally with the test compound in a dose volume of 10 ml/kg. Doses of test substance were calculated based upon the active compound. Substances for oral administration were dissolved or suspended in a 0.5% aqueous methylcellulose (15 centipoises) vehicle containing 4 ml of Tween 80/l.
A dose of 160 mg/kg of L-5-hydroxytryptophan (5-HTP) was administered i.v. in a dose volume of 5 ml/kg after one hour. The test mouse was restrained in a rodent restrainer that allowed the tail to extend out the back. The tail was then placed in tepid (but not scalding) water for approximately 10 seconds to soften the skin and dilate the tail vein. A 1 ml syringe and 25 gauge (5/8 inch) needle was used to administer the 5-HTP solution into one of the lateral tail veins.
A timer was started after dosing with 5-HTP to the first animal of the test group. […] A head twitch involves the head, neck and ears and has the appearance of an exaggerated pinal reflex. The number of head twitches for each individual vehicle-treated mouse were recorded to establish a historical baseline.
The active compounds in the test block the twitch response (the response rated all or none).

Row | Structure (SMILES) | Antihypertensive Activity, p.o., % AMAP (maximal change in mean arterial pressure) [1] | Phenylephrine-Induced Pressor Response ED50 [2] | inhibition at 1 µM ([3]; @ 1 μM, read-out: Brain 5-HT1 Receptor % displaced (% inhibition)) | ED50 [4] | IC50 [5] | IC (10-fold shift) [6] | IC50 [7] | Inhibit. of 5-HTP-Head Twitch (result in words) ([8]; @ 10 (mg/kg, p.o.)) | IC50 ([3]; rat frontal cortex membranes, pH 7.4, read-out: Brain 5-HT1 Receptor IC50) | Inhibit. of 5-HTP-Head Twitch ED50 ([8]; 5-HTP 160 mg/kg i.v. after one hour)
1 | CC(=O)n1c(=O)n(CCN2CCC(C(=O)c3ccc(F)cc3)CC2)c(=O)c2ccsc21 [Example 3, 1-Acetyl-3-[2-[4-(4-fluorobenzoyl)piperidin-1-yl]ethyl]thieno[2,3-d]pyrimidine-2,4-dione] | -4% | 10.0 mg/kg | 13% | 0.025 mg/kg | 2.4 nM | 0.0229 µM | 8000 nM | Inact. |  | 
2 | O=C(c1ccc(F)cc1)C1CCN(CCn2c(=O)[nH]c3ccsc3c2=O)CC1 [Example 1, 3-[2-[4-(4-Fluorobenzoyl)piperidin-1-yl]ethyl]thieno[3,2-d]pyrimidine-2,4-dione] | -10% | > 10 mg/kg |  | 0.009 mg/kg | 0.6 nM | 0.0063 µM | 34 nM |  | 16000 nM | 2.1 mg/kg, p.o.
